Reference: patent publication US11613531B2, “Inhibitors of RHO associated coiled-coil containing protein kinase” (Kadmon Corporation, LLC, priority 2017, dated 2023)
Like-named read-outs stand apart in the source and are kept apart here.

What was measured:
[1] = molecular target: Recombinant ROCK1 (amino acids 1-535) (Homo sapiens (Human), UniProt Q13464); experiment: Z′-Lyte kinase assay, ROCK1; type: biochemical; details: for inhibition at 3 µM: 3 μM compound; for inhibition at 3 µM / inhibition at 0.5 µM: read-out: ROCK1 % inh. @ [conc]; for inhibition at 0.5 µM: 0.5 μM compound
Chain of Recombinant ROCK1 (amino acids 1-535) (Q13464 1-535): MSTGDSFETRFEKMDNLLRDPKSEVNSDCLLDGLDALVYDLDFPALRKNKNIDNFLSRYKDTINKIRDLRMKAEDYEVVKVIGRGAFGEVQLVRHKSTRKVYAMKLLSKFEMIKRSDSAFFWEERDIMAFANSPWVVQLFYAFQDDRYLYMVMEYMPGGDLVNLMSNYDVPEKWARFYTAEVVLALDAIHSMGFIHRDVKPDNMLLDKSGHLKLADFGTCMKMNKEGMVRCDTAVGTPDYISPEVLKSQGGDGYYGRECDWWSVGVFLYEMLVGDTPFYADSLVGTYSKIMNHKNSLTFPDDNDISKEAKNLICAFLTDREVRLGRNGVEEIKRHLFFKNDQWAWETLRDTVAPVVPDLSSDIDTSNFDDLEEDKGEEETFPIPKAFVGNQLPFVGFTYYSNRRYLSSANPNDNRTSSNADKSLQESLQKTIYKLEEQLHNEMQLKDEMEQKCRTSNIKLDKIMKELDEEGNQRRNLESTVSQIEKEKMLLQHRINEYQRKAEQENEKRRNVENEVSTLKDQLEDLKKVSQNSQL
Protocol: Determination of Compound's ROCK Inhibitory Activity In Vitro (Z'Lyte Assay).
Recombinant ROCK1 (amino acids 1-535) and ROCK2 (amino acids 1-552) proteins were purchased from ThermoFisher Scientific. Compound's activities were measured by Z′-lyte kinase kit (ThermoFisher Scientific) and IC50 was calculated
In vitro activities for the compounds were measured with Z′-lyte kinase kit (ThermoFisher Scientific). The percent inhibition rate was calculated by normalizing the kinase activity value obtained with 1 μM compound treatment against DMSO control value and then applied to the formula, [1-(compound/DMSO)]×100%. IC50s were calculated using the nonlinear regression curve fit function of the GraphPad Prism software with kinase activities data measured with 9 points 2-fold serial dilution of compounds treatment. In cell pMLC IC50s were calculated with data obtained from A7R5 cell experiments. A7R5 cells were treated with 9 points 2-fold serial dilution of compounds and ppMlc (T18/S19) levels were determined to calculate cellular IC50 values of the compounds using the nonlinear regression curve fit function of the GraphPad Prism software. NIH3T3 cells stably expressing ACTA2-promoter-driven-luciferase were applied to measure ROCK compounds functional IC50s in cells. Cells were plated in 96 well plates to confluence and treated with 9 points serial dilution of compounds in combination with TGFβ1 for 24 hr. Luciferase activities were measured and compound's IC50s were calculated using the nonlinear regression curve fit function of the GraphPad Prism software.

[2] = molecular target: Recombinant ROCK2 (amino acids 1-552) (Homo sapiens (Human), UniProt O75116); experiment: Z′-Lyte kinase assay, ROCK2; type: biochemical; details: for inhibition at 3 µM: 3 μM compound; for inhibition at 0.5 µM: 0.5 μM compound
Chain of Recombinant ROCK2 (amino acids 1-552) (O75116 1-552): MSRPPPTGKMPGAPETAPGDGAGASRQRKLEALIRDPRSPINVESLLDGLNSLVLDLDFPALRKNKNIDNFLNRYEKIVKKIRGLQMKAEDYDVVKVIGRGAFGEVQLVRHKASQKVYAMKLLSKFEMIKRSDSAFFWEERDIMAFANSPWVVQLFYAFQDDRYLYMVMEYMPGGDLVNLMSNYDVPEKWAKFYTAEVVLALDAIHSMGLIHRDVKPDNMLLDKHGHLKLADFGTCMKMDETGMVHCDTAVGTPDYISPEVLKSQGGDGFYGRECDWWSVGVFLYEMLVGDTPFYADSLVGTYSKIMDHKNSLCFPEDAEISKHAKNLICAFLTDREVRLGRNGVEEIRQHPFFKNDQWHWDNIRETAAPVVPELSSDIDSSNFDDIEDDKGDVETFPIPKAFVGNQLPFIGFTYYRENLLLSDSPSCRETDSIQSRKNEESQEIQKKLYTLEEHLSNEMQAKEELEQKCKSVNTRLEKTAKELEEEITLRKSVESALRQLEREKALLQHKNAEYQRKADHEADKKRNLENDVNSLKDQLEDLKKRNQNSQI
Procedure, shortened: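 Recombinant human ROCK1 (aa 1-535) or ROCK2 (aa 1-552) activity read by Z′-Lyte kinase assay. Percent inhibition at 1 μM compound was normalized to DMSO control; IC50 from 9-point 2-fold serial dilutions by nonlinear regression.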

[3] = system: ppMlc (T18/S19) levels in A7R5 cells; experiment: A7R5 in-cell ELISA (pMLC); type: cell-based, Rat; details: Rattus norvegicus, A7R5, A7R5 cells; for inhibition at 10 µM: 10 μM compound
Procedure, shortened: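 A7R5 rat aortic smooth muscle cells seeded 24 h, then treated 90 min with a 9-point 2-fold compound dilution series. Fixed cells probed for ppMlc (T18/S19) by colorimetric in-cell ELISA; cellular IC50 from nonlinear regression curve fit.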

[4] = read-out: ROCK2 % inh. @ [conc]
[5] = 9 points 2-fold serial dilution
[6] = read-out: pMLC % inh A7R5 @ [conc]

| SMILES | inhibition at 10 µM [3, 6] [%] | inhibition at 0.5 µM [1] [%] | inhibition at 0.5 µM [2, 4] [%] | IC50 [2] [nM] | also measured |
| --- | --- | --- | --- | --- | --- |
| Cc1cc(Nc2ccc3[nH]ncc3c2)nc(N2CCCNCC2)n1 [Example 5, N-(2-(1,4-diazepan-1-yl)-6-methylpyrimidin-4-yl)-1H-indazol-5-amine] | 86 | – | – | – | inhibition at 3 µM [1]: 98.3%; inhibition at 3 µM [2, 4]: 102%; IC50 [2, 5]: 54 nM; IC50 ([3]; ppMlc (T18/S19)): 63 nM |
| COc1cnc(N2CCCNCC2)nc1Nc1ccc2[nH]ncc2c1 [Example 7, N-(2-(1,4-diazepan-1-yl)-5-methoxypyrimidin-4-yl)-1H-indazol-5-amine] | 98.3 | – | – | – | IC50 [1, 5]: 65 nM; inhibition at 1 µM ([2]; 1 μM compound, read-out: ROCK2 % inh. @ [conc]): 96%; IC50 [2, 5]: 107 nM; IC50 ([3]; ppMlc (T18/S19)): 460 nM |
| c1cc2nc(N3CCCNCC3)nc(Nc3ccc4[nH]ncc4c3)c2s1 [Example 10, 2-(1,4-diazepan-1-yl)-N-(1H-indazol-5-yl)thieno[3,2-d]pyrimidin-4-amine] | 90 | 94 | 98 | – | IC50 [2, 5]: 20 nM; IC50 ([3]; ppMlc (T18/S19)): 565 nM |
| c1cc2[nH]ncc2cc1Nc1nc(N2CCCNCC2)nc2c1COC2 [Example 11, 2-(1,4-diazepan-1-yl)-N-(1H-indazol-5-yl)-5,7-dihydrofuro[3,4-d]pyrimidin-4-amine] | 89 | 76 | 93 | – | IC50 [2, 5]: 31 nM; IC50 ([3]; ppMlc (T18/S19)): 1120 nM |
| c1ccc(C2CN(c3nccc(Nc4ccc(-c5ccncc5)cc4)n3)CCCN2)cc1 (stereo not drawn) [Example 18, 2-(3-phenyl-1,4-diazepan-1-yl)-N-(4-(pyridin-4-yl)phenyl)pyrimidin-4-amine] | 11 | – | – | – | IC50 [1, 5]: 332 nM; IC50 [2, 5]: 206 nM |
| c1cc(Nc2ccc3[nH]ncc3c2)nc(N2CCNCC2)n1 [Example 34, N-(2-(piperazin-1-yl)pyrimidin-4-yl)-1H-indazol-5-amine] | 62.4 | – | – | 29 | IC50 [1]: 31 nM; inhibition at 3 µM [1]: 102%; inhibition at 3 µM [2, 4]: 101%; IC50 [3]: 393 nM |
| c1cc(Nc2ccc3[nH]ncc3c2)nc(N2CCCNCC2)n1 [Example 35, N-(2-(1,4-diazepan-1-yl)pyrimidin-4-yl)-1H-indazol-5-amine] | 68.1 | – | – | 15 | IC50 [1]: 16 nM; inhibition at 3 µM [1]: 100%; inhibition at 3 µM [2, 4]: 98.9%; IC50 [3]: 416 nM |
| c1cc2[nH]ncc2cc1Nc1nc(N2CC3CCC(C2)N3)nc2c1COC2 [Example 39, 2-(3,8-diazabicyclo[3.2.1]octan-3-yl)-N-(1H-indazol-5-yl)-5,7-dihydrofuro[3,4-d]pyrimidin-4-amine] | – | 67 | 64 | – | inhibition at 1 µM ([3]; 1 μM compound, read-out: pMLC % inh A7R5 @ [conc]): 6.6% |
| CC1CN(c2nccc(Nc3ccc(-c4ccncc4)cc3)n2)CCCN1 (stereo not drawn) [Example 43, 2-(3-methyl-1,4-diazepan-1-yl)-N-(4-(pyridin-4-yl)phenyl)pyrimidin-4-amine] | – | – | – | – | inhibition at 3 µM [1]: 99%; IC50 [1, 5]: 135 nM; inhibition at 3 µM [2, 4]: 98.8%; IC50 [2, 5]: 120 nM; IC50 ([3]; ppMlc (T18/S19)): 730 nM |
| c1cc2[nH]ncc2cc1Nc1nc(N2C3CCC2CNC3)nc2c1COCC2 [Example 46, 2-(3,8-diazabicyclo[3.2.1]octan-8-yl)-N-(1H-indazol-5-yl)-7,8-dihydro-5H-pyrano[4,3-d]pyrimidin-4-amine] | – | 98 | 98 | 1 | – |
| c1cc(-c2cn[nH]c2)ccc1Nc1nc(N2C3CCC2CNC3)nc2c1COCC2 [Example 243, N-(4-(1H-pyrazol-4-yl)phenyl)-2-(3,8-diazabicyclo[3.2.1]octan-8-yl)-7,8-dihydro-5H-pyrano[4,3-d]pyrimidin-4-amine] | – | 67 | 80 | 56 | – |
| c1cc2c(Nc3ccc4[nH]ncc4c3)nc(N3C4CCC3CNC4)nc2s1 [Example 274, 2-(3,8-diazabicyclo[3.2.1]octan-8-yl)-N-(1H-indazol-5-yl)thieno[2,3-d]pyrimidin-4-amine] | – | 101 | 99 | 0.4 | – |
| c1cc2[nH]ncc2cc1Nc1nc(N2C3CCC2CNC3)nc2c1CNC2 [Example 275, 2-(3,8-diazabicyclo[3.2.1]octan-8-yl)-N-(1H-indazol-5-yl)-6,7-dihydro-5H-pyrrolo[3,4-d]pyrimidin-4-amine] | – | 95 | 90 | 1.2 | – |
| c1cc(-c2cn[nH]c2)ccc1Nc1nc(N2C3CCC2CNC3)nc2c1CNC2 [Example 276, N-(4-(1H-pyrazol-4-yl)phenyl)-2-(3,8-diazabicyclo[3.2.1]octan-8-yl)-6,7-dihydro-5H-pyrrolo[3,4-d]pyrimidin-4-amine] | – | 88 | 91 | 2.3 | – |
| c1cc(-c2cn[nH]c2)ccc1Nc1nc(N2C3CCC2CNC3)nc2c1COC2 [Example 279, N-(4-(1H-pyrazol-4-yl)phenyl)-2-(3,8-diazabicyclo[3.2.1]octan-8-yl)-5,7-dihydrofuro[3,4-d]pyrimidin-4-amine] | – | 76 | 85 | 40 | – |
| c1cc2nc(N3C4CCC3CNC4)nc(Nc3ccc4[nH]ncc4c3)c2s1 [Example 282, 2-(3,8-diazabicyclo[3.2.1]octan-8-yl)-N-(1H-indazol-5-yl)thieno[3,2-d]pyrimidin-4-amine] | – | 101 | 99 | < 0.1 | – |
| CCOC(=O)[C@]12CCNCCC1CN(c1ncc(F)c(Nc3ccc4[nH]ncc4c3)n1)C2 (stereo partly drawn) [Example 322, Ethyl (3αR,8αR)-2-(4-((1H-indazol-5-yl)amino)-5-fluoropyrimidin-2-yl)octahydropyrrolo[3,4-d]azepine-3α(1H)-carboxylate] | – | 17 | 29 | – | – |
| CCOC(=O)[C@]12CCNCCC1CN(c1ncc(Cl)c(Nc3ccc4[nH]ncc4c3)n1)C2 (stereo partly drawn) [Example 323, Ethyl (3αR,8αR)-2-(4-((1H-indazol-5-yl)amino)-5-chloropyrimidin-2-yl)octahydropyrrolo[3,4-d]azepine-3α(1H)-carboxylate] | – | 17 | 29 | – | – |
| CCOOCC12CNCC1(C(F)(F)F)CN(c1ncc(F)c(Nc3ccc4[nH]ncc4c3)n1)C2 (stereo not drawn) [Example 328, N-(2-(3a-((ethylperoxy)methyl)-6a-(trifluoromethyl)hexahydropyrrolo[3,4-c]pyrrol-2(1H)-yl)-5-fluoropyrimidin-4-yl)-1H-indazol-5-amine] | – | 8 | 7 | – | – |
| CCOC(=O)C12CNCC1(C(F)(F)F)CN(c1ncc(Cl)c(Nc3ccc4[nH]ncc4c3)n1)C2 (stereo not drawn) [Example 338, Ethyl 2-(4-((1H-indazol-5-yl)amino)-5-chloropyrimidin-2-yl)-6a-(trifluoromethyl)hexahydropyrrolo[3,4-c]pyrrole-3a(1H)-carboxylate] | – | 3 | 13 | – | – |
| CCOC(=O)C1NC2CC1CN(c1ncc(F)c(Nc3ccc4[nH]ncc4c3)n1)C2 (stereo not drawn) [Example 339, Ethyl 3-(4-((1H-indazol-5-yl)amino)-5-fluoropyrimidin-2-yl)-3,6-diazabicyclo[3.2.1]octane-7-carboxylate] | – | 56 | 75 | 211 | – |
| Nc1ncc(-c2ccc(Nc3ccnc(N4CCNCC4)n3)cc2)s1 [Example 361, 5-(4-((2-(piperazin-1-yl)pyrimidin-4-yl)amino)phenyl)thiazol-2-amine] | 2.02 | – | – | > 10000 | – |
| O=C1Cc2cc(Nc3ccnc(N4CCNCC4)n3)ccc2N1 [Example 365, 5-((2-(piperazin-1-yl)pyrimidin-4-yl)amino)indolin-2-one] | 5.72 | – | – | > 10000 | – |
| c1cc(Nc2ccc(-c3ccnc4[nH]ccc34)cc2)nc(N2CCNCC2)n1 [Example 368, N-(4-(1H-pyrrolo[2,3-b]pyridin-4-yl)phenyl)-2-(piperazin-1-yl)pyrimidin-4-amine] | 91.3 | – | – | 1050 | IC50 [3]: 1630 nM |
| c1cc(Nc2cnc3[nH]ccc3c2)nc(N2CCCNCC2)n1 [Example 370, N-(2-(1,4-diazepan-1-yl)pyrimidin-4-yl)-1H-pyrrolo[2,3-b]pyridin-5-amine] | 5.8 | – | – | 6270 | – |
